Reference: ChEMBL document CHEMBL1157539, “Thousands of chemical starting points for antimalarial lead identification” (Nature, 2010)

Test system: Plasmodium falciparum
Assay: GSK_TCMDC: Inhibition of Plasmodium falciparum 3D7 in whole erythrocytes, using parasite LDH activity as an index of growth.
Type: functional, organism-based

Structure (SMILES) | XC50 (Plasmodium falciparum, 3D7) [nM] | XC50 [nM]
Oc1cc2c(cc1CN1CCN(Cc3ccc(Cl)s3)CC1)CCC2 | 616 | 
COc1ccc(CNc2ccnc3cc(OC)ccc23)cc1 | 766 | 
CCN(CC)CCNc1cc(C)nc(NC(=N)Nc2ccc(Cl)cc2)n1 | 130 | 
CC(CON1C(N)=NC(N)=NC1(C)C)Cc1ccc(Cl)cc1Cl (stereo unspecified) | 3.2 | 
CCCc1cc(OC)c(CC2c3cc(O)c(Cl)cc3C(c3ccccc3)CN2C)cc1OC (stereo unspecified) | 430 | 
O=C(Nc1ccc(F)cc1)NC1CCN(c2ccnc3ccccc23)C1 (stereo unspecified) | 873 | 
C#C[C@H]1O[C@@H](n2cnc3c(Nc4cc(Br)cc(C(F)(F)F)c4)ncnc32)[C@H](O)[C@@H]1O | 1030 | 
CCCOc1cccc(C(=O)N[C@@H](Cc2ccccc2)[C@H](O)CNCc2cccc(OC)c2)c1 | 741 | 
CCCCCCN1CCCN(Cc2ccc(C(=O)Nc3ccc(Cl)cc3)cc2)CC1 | 1210 | 
O=C1COc2ccccc2N1C/C=C(\CN1CCC(c2ccccc2)CC1)c1cc(Cl)cc(Cl)c1 | 215 | 
CCOC(=O)N(C)/N=C/[C@H](CCc1ccccc1)NC(=O)[C@H](CC(C)C)NC(=O)c1cc2cccc(OC)c2o1 | 556 | 
CCc1nc(N)nc(N)c1CCCOc1ccccc1Cl | 105 | 
Cc1ccc(C(=O)NC2C(=O)NC2c2ccccc2)c(C)c1 (stereo unspecified) | 955 | 
O=S(=O)(Nc1cccc(CCN2CCC(N3CCCCC3)CC2)c1)c1cccc2cccnc12 | 851 | 
COc1cccc(-c2cc(C(=O)Nc3ccc4[nH]c(-c5ccccc5)nc4c3)[nH]n2)c1 | 836 | 
CCNc1cc(C(=O)N[C@@H](Cc2ccccc2)[C@H](O)CNC23CCC(CC2)C3)cc(N2CCCCS2(=O)=O)c1 | 34.1 | 
COc1cccc(/C=C/C(=O)NC2CCC(CN3CCC(c4c[nH]c5ccccc45)CC3)CC2)c1 (stereo unspecified) | 765 | 834
O=C(c1ccc(-c2cccc(-c3nc4cc(F)ccc4[nH]3)c2)cc1)N1CCCCC1CN1CCC(O)C1 (stereo unspecified) | 1400 | 
CC(C)Sc1nc2c(c(=O)n1Cc1ccco1)C1(CCCCC1)Cc1ccccc1-2 | 251 | 
C=CCOC(=O)O[C@@H]1[C@@H](OC(=O)OCC=C)[C@@H](OC)O[C@H](COC(c2ccccc2)(c2ccccc2)c2ccccc2)[C@H]1OC(=O)OCC=C | 887 | 
CC[C@H]1CN2CC[C@H]1C[C@H]2[C@H](O)c1cc(-c2cccc(F)c2)nc2ccc(OC)cc12 | 58.2 | 
COc1ccc2ccccc2c1CNCCCCCCNCc1c(OC)ccc2ccccc12 | 712 | 
C=CCOc1ccc(Cc2cnc(N)nc2N)cc1CCC | 1020 | 
COCCNCc1ccc(-c2cccc(CNc3ccc(OC)cc3)c2)cc1 | 1040 | 

Structure (SMILES) | XC50 (Plasmodium falciparum, 3D7) [nM] | XC50 [nM]
COc1ccc(NC(=O)NC2CCN(c3ccnc4cc(Cl)ccc34)CC2)cc1 | 731 | 
Cc1ccc(Cn2ncc(N3CC(C)NC(C)C3)c(Cl)c2=O)cc1NC(=O)Nc1ccc(-c2ccccc2)cc1 (stereo unspecified) | 739 | 
CN(C)c1ccc(CN2CCC(CNC(=O)c3cc(-c4ccccc4F)cs3)C2)cc1 (stereo unspecified) | 911 | 
COc1ccc(CNCc2cccc(-c3ccc(-c4nc5ccccc5[nH]4)cc3)c2)cc1 | 311 | 
c1ccc2c(CNCCCN3CCN(CCCNCc4c5ccccc5cc5ccccc45)CC3)c3ccccc3cc2c1 | 182 | 
COCCNCc1cccc(C#Cc2cc3ncnc(Nc4ccc(OCc5cccc(F)c5)c(Cl)c4)c3s2)n1 | 739 | 
Cc1cc2nc(-c3ccc(C(=O)NCc4ccc(C(C)(C)C)cc4)cc3)[nH]c2cc1C | 772 | 
CCc1cn2c3c(cc(C(=O)N[C@@H](Cc4ccccc4)[C@H](O)CNCc4ccccc4)cc13)N(C)S(=O)(=O)CC2 | 664 | 
CC(Cc1ccc(OCCN2CCN(c3cccc(Cl)c3)CC2)cc1)NCC(O)c1cccc(C(F)(F)F)c1 (stereo unspecified) | 602 | 
COc1ccc2nccc([C@@H](O)CN3CCC(NC(=O)c4ccc5nc(-n6cccc6)sc5c4)CC3)c2c1 | 1000 | 
O=C(Nc1ccncc1)c1cc(C(=O)Nc2ccncc2)cc([N+](=O)[O-])c1 | 614 | 
CCOC(=O)c1ccc(NC(=O)Nc2ccc(-c3ccc(-c4nc5ccccc5[nH]4)cc3)cc2)cc1 | 22.3 | 
CC(C)Oc1cccc(-c2ccc(C(=O)NCC3CCCN(Cc4cccc(C(F)(F)F)c4)C3)s2)c1 (stereo unspecified) | 1080 | 
CCOc1ccc(C(=O)Nc2nonc2-c2ccc(OC)c(OC)c2)cc1 | 868 | 
CN(CCN(C)CC(O)c1ccc(Cl)c(Cl)c1)CC(O)c1ccc(Cl)c(Cl)c1 (stereo unspecified) | 1100 | 
O=C(Nc1ccc(OC2CCN(Cc3ccccc3)CC2)c(Cl)c1)c1ccco1 | 408 | 
COc1ccc(C2CC(=O)C3=C(C2)NC(C)=C(C(=O)OC(C)C)C3c2cccc(O)c2)cc1OC (stereo unspecified) | 785 | 
CCCCc1ccc(S(=O)(=O)Nc2ccc3c(c2)CCN(Cc2c[nH]c4cnccc24)CC3)cc1 | 674 | 
Cc1noc(-c2ccc3c(c2)CCN(CCC2CCC(NC(=O)c4cc5ccccc5[nH]4)CC2)CC3)n1 (stereo unspecified) | 689 | 
CCCCN(CCCC)CCCCNc1c2ccc(Cl)cc2nc2ccc(OC)cc12 | 175 | 
O=C(NCCCCN1CCC(c2nc3ccccc3s2)CC1)c1cc2ccccc2[nH]1 | 1020 | 
CCc1ccc(CN2CCC(NC(=O)c3cc(-c4ccc(N(C)C)cc4)cs3)C2)cc1 (stereo unspecified) | 1440 | 
COc1cc(-c2cnc(N)c(-c3nc4ccccc4[nH]3)c2)cc(OC)c1OC | 191 | 
COc1cc(C(C)C)ccc1N1CCN(CCCCNC(=O)c2ccc(NC(=O)c3ccc(Cl)cc3)cc2)CC1 | 576 | 

Structure (SMILES) | XC50 (Plasmodium falciparum, 3D7) [nM] | XC50 [nM]
Cc1cccc2nc(-c3ccc(-c4ccc(NC(=O)NCc5cccc(F)c5)cc4)cc3)[nH]c12 | 1300 | 
c1cc(-c2ccc(CNC3CC3)cc2)cc(-c2nc3ccccc3[nH]2)c1 | 1660 | 
COc1ccc(CN2CCC(CNCCc3ccccc3Oc3ccccc3)CC2)cc1 | 1100 | 
CC(CCCCC(=O)Nc1ccc(C(F)(F)F)cc1)NCC(O)c1cccc(Cl)c1 (stereo unspecified) | 282 | 
CC(C)(C)c1ccc(CN(C[C@@H](O)CNS(=O)(=O)c2cc(Cl)cc(Cl)c2)C(C)(C)C)cc1 | 935 | 
c1ccc(COc2ccccc2COc2ccccc2-c2ccc3cccnc3n2)cc1 | 921 | 
CC1CCN(CC[C@H]2CCCN2S(=O)(=O)c2cccc(NC(=O)c3cc4ccccc4s3)c2)CC1 | 830 | 
CCc1c(CCNCCCCCCNCCc2ccc(OC)c(OC)c2C)ccc(OC)c1OC | 1570 | 
CC(C)c1ccc(CN2CCC(NC(=O)c3ccc(-c4cccc(Cl)c4)s3)CC2)cc1 | 1430 | 
N#Cc1ccc(-c2ccc(C(=O)NCC3CCN(CCN4CCC(c5ccc6c(c5OCC(N)=O)CCCC6)CC4)CC3)cc2)cc1 | 443 | 
Cc1ccc2[nH]c(C)cc(=NN=Cc3ccc(Cl)cc3)c2c1 | 992 | 
CCCCCOc1ccc(C(O)C(CCC(CN2CCCCCC2)C(O)c2ccc(OCCCCC)cc2)CN2CCCCCC2)cc1 (stereo unspecified) | 768 | 
CCCC(N)C(=O)NC1CCN(c2c(F)c(N)c3c(=O)c(C(=O)O)cn4c3c2Oc2ccccc2-4)C1 (stereo unspecified) | 359 | 
O=C(Nc1ccc(OC2CCN(Cc3ccc(F)cc3)CC2)cc1)c1cccs1 | 969 | 
O=C(Nc1ccc(OC2CCN(Cc3ccccc3)C2)c(Cl)c1)c1ccsc1 (stereo unspecified) | 735 | 
CC[C@H]1CN2CC[C@H]1C[C@H]2[C@H](O)c1cc(N2CCCC2)nc2ccc(OC)cc12 | 44.8 | 
COc1cccc(CNC(=O)c2ccnc(-c3ccc(CNCCOc4ccccc4)cc3)c2)c1 | 1200 | 
O=C(Nc1ccc(Br)cc1)N(CCN1CCOCC1)CC(O)COc1ccc(Cl)c(F)c1 (stereo unspecified) | 1040 | 
CO/C(=C\C=C\c1cc2cc(Cl)c(Cl)cc2[nH]1)C(=O)NCCCN1CCN(c2cccc(CCO)c2)CC1 | 716 | 
O=C(Nc1ccc(OC2CCN(Cc3ccccc3)CC2)c(Cl)c1)c1cccs1 | 312 | 
O=C(Nc1cccc(-c2nc3ccccc3[nH]2)c1)c1cccc(NC(=O)c2ccco2)c1 | 360 | 
Cc1nnnn1-c1ccc(C(=O)N2CCC3(CC2)CN(Cc2ccc(Cl)c(Cl)c2)C(=O)O3)cc1 | 181 | 
N#Cc1ccc(N(CCNS(=O)(=O)c2cc(Br)c(Cl)s2)Cc2ccccc2C(F)(F)F)cc1C(F)(F)F | 857 | 
CCOc1ccc2c(=NN=Cc3ccc(OC)c(OC)c3)cc(C)[nH]c2c1 | 700 | 

Structure (SMILES) | XC50 (Plasmodium falciparum, 3D7) [nM] | XC50 [nM]
Cc1ccc(C(=O)Cn2nc(-c3ccc(C)c(S(=O)(=O)N4CCCCC4)c3)ccc2=O)cc1 | 333 | 
O=C(NCc1ccc(F)cc1)Nc1cccc(-c2ccc(-c3nc4ccccc4[nH]3)cc2)c1 | 165 | 
CNCc1ccc(-c2cccc(CNCc3ccc(-c4ccccc4)cc3)c2)c(C(=O)OC)c1 | 980 | 
CNCCN(C)C(=O)Oc1c(Br)c(C)nc(C)c1-c1ccc(Oc2ccc(OC(F)(F)F)cc2)cc1 | 109 | 
Cc1noc(C)c1-c1ccc(C(=C2CCCCCCC2)c2ccc(O)cc2)cc1 | 1050 | 
COc1ccc(CN2CCCC(C(=O)c3ccc(C(F)(F)F)cc3)C2)c(O)c1 (stereo unspecified) | 849 | 
N=C(N)c1cc(Cl)cc(NC(=O)Nc2cc(Cl)cc(C(=N)N)c2)c1 | 719 | 
COc1ccc(-c2cnc3ccc(NCc4ccc(S(N)(=O)=O)cc4)nn23)cn1 | 867 | 
CN(C)C(CNC(=O)c1cc(-c2ccncc2)c(-c2ccc(NC(=O)Nc3ccccc3)cc2)o1)c1ccccc1 (stereo unspecified) | 603 | 
CN(CCc1ccccn1)Cc1ccc(-c2ccc(-c3nc4ccccc4[nH]3)s2)cc1 | 588 | 
COc1c(Br)cc(Br)cc1C(C)=O | 989 | 
O=C(NCC1CCC1)c1cnc(Nc2cccc(Cl)c2)nc1N1CCC1 | 862 | 
CCCc1ccc(S(=O)(=O)Nc2ccc3c(c2)CCC3)cc1 | 879 | 
CN1CCN(CC(=O)Nc2ccc(-c3ccc(-c4nc5cc(C(F)(F)F)ccc5[nH]4)s3)cc2)CC1 | 569 | 
CCC[C@@H]([C@@H](CC1CCCCC1)C(=O)N[C@H](C(=O)Nc1nccc(N)n1)C(C)(C)C)N(O)C=O | 528 | 
CC(=O)Nc1ccc2[nH]cc(C3CCN(CCC4CCN(C(=O)/C=C/c5ccc(Cl)c(Cl)c5)CC4)CC3)c2n1 | 518 | 
CCOc1ccc(NC(=O)c2cn3nc(-c4ccc(OCC)cc4)cc3nc2C2CCNCC2)cc1 | 515 | 
CCN(CC)CCN(CCN(CC)CC)c1ccc(-c2nc3cc(Cl)c(Cl)cc3[nH]2)cc1 | 785 | 
CN1CCN(c2ccc(Nc3nccc(-c4cnn5ncccc45)n3)cc2Cl)CC1 | 833 | 
CCCC(=O)Nc1ccc(OCCCCN(Cc2ccccc2C(F)(F)F)c2ccc(C(F)(F)F)c(C#N)c2)cc1 | 973 | 
COc1ccc(CNCc2ccccc2)cc1-c1ccc(S(=O)(=O)NCCN2CCCC2)cc1 | 824 | 
O=C(Nc1cccnc1)c1cc(-c2cccnc2)nc2ccc(Br)cc12 | 640 | 
CCCC(=O)Nc1ccc(OCCN(Cc2ccccc2OC(F)(F)F)c2ccc(C(F)(F)F)c(C#N)c2)cc1 | 788 | 
